In patent publication US11926623B2, “Heterocycle derivatives as pesticides” (Bayer Aktiengesellschaft, priority 2018, dated 2024):
Where two headings read alike, the source gives them in different places.

Columns and labels:
[1] = tested on: Myzus persicae; test: Myzus persicae oral test; assay type: in vivo; conditions: 120 h, mixed population of green peach aphids, after 5 days, read-out: efficacy
Method: Myzus persicae—Oral Test [table] To produce a suitable preparation of active compound, 1 part by weight of active compound is dissolved using the specified parts by weight of solvent and made up with water until the desired concentration is attained. 50 μl of the active ingredient formulation are transferred into microtitre plates and made up to a final volume of 200 μl with 150 μl of IPL41 insect medium (33%+15% sugar). Subsequently, the plates are sealed with parafilm, which a mixed population of green peach aphids (Myzus persicae) within a second microtitre plate is able to puncture and imbibe the solution through. After 5 days, the efficacy in % is determined. 100% means that all the aphids have been killed; 0% means that no aphids have been killed.

[2] = tested on: Spodoptera frugiperda; test: Spodoptera frugiperda spray test; assay type: in vivo; conditions: foliar, 168 h, sprayed maize leaf discs, fall armyworm caterpillars, after 7 days, read-out: efficacy
Method: Spodoptera frugiperda—Spray Test [table] To produce a suitable active compound preparation, 1 part by weight of active compound is dissolved using the stated parts by weight of solvent and made up with water containing an emulsifier concentration of 1000 ppm until the desired concentration is attained. To produce further test concentrations, the formulation is diluted with emulsifier-containing water. Leaf discs of maize (Zea mays) are sprayed with an active compound formulation of the desired concentration and, after drying, populated with caterpillars of the fall armyworm (Spodoptera frugiperda). After 7 days, the efficacy in % is determined. 100% means that all the caterpillars have been killed; 0% means that no caterpillar has been killed.

[3] = tested on: Diabrotica balteata; test: Diabrotica balteata spray test; assay type: in vivo; conditions: 168 h, 160 μg/well, sprayed germinated wheat grains, beetle larvae, after 7 days, read-out: efficacy
Method: Diabrotica balteata—Spray Test [table] To produce a suitable active compound preparation, 1 part by weight of active compound is dissolved using the stated parts by weight of solvent and made up with water containing an emulsifier concentration of 1000 ppm until the desired concentration is attained. To produce further test concentrations, the formulation is diluted with emulsifier-containing water. Pre-swollen wheat grains (Triticum aestivum) are incubated in a multiwell plate filled with agar and a little water for one day (5 seed grains per well). The germinated wheat grains are sprayed with an active compound preparation of the desired concentration. Subsequently, each cavity is infected with 10-20 beetle larvae of Diabrotica balteata. After 7 days, the efficacy in % is determined. 100% means that all wheat plants have grown as in the untreated, uninfected control; 0% means that no wheat plant has grown.

[4] = tested on: Myzus persicae; test: Myzus persicae spray test; assay type: in vivo; conditions: foliar, 120 h, sprayed Chinese cabbage leaf discs, all stages of the green peach aphid, after 5 days, read-out: efficacy
Method: Myzus persicae—Spray Test [table] To produce a suitable active compound preparation, 1 part by weight of active compound is dissolved using the stated parts by weight of solvent and made up with water containing an emulsifier concentration of 1000 ppm until the desired concentration is attained. To produce further test concentrations, the formulation is diluted with emulsifier-containing water. Discs of Chinese cabbage leaves (Brassica pekinensis) infested by all stages of the green peach aphid (Myzus persicae) are sprayed with an active compound formulation of the desired concentration. After 5 days, the efficacy in % is determined. 100% means that all the aphids have been killed; 0% means that no aphids have been killed.

[5] = tested on: Phaedon cochleariae; test: Phaedon cochleariae spray test; assay type: in vivo; conditions: 100 g/ha, sprayed Chinese cabbage leaf discs, mustard beetle larvae, after 7 days
Method: Phaedon cochleariae—Spray Test
To produce a suitable active compound preparation, 1 part by weight of active compound is dissolved using the stated parts by weight of solvent and made up with water containing an emulsifier concentration of 1000 ppm until the desired concentration is attained. To produce further test concentrations, the formulation is diluted with emulsifier-containing water.
Discs of Chinese cabbage leaves (Brassica pekinensis) are sprayed with an active compound formulation of the desired concentration and, after drying, populated with larvae of the mustard beetle (Phaedon cochleariae).
After 7 days, the efficacy in % is determined. 100% means that all the beetle larvae have been killed; 0% means that no beetle larvae have been killed.

[6] = tested on: Ctenocephalides felis; test: Ctenocephalides felis oral test; assay type: in vivo; conditions: 48 h, 100 ppm in citrated cattle blood, unfed adult cat fleas, after 2 days, read-out: efficacy (kill in %)
Method: Ctenocephalides felis—Oral Test [table] To produce a suitable active compound preparation, 10 mg of active compound are mixed with 0.5 ml of dimethyl sulfoxide. Dilution with citrated cattle blood gives the desired concentration. About 20 unfed adult cat fleas (Ctenocephalides felis) are placed into a chamber which is closed at the top and bottom with gauze. A metal cylinder whose bottom end is closed with parafilm is placed onto the chamber. The cylinder contains the blood/active compound formulation, which can be imbibed by the fleas through the parafilm membrane. After 2 days, the kill in % is determined. 100% means that all of the fleas have been killed; 0% means that none of the fleas have been killed.

[7] = log P by HPLC on reversed-phase column (C18), EEC Directive 79/831 Annex V.A8; assay type: physicochemical
Method: The log P values were determined according to EEC Directive 79/831 Annex V.A8 by HPLC (high-performance liquid chromatography) on a reversed-phase column (C18) using the following methods: ^[a] […] Calibration was carried out using a homologous series of straight-chain alkan-2-ones (having 3 to 16 carbon atoms) with known log P values. The values between successive alkanones are determined by linear regression.

[8] = LC-UV in the acidic range, formic acid in water / acetonitrile, read-out: log P[acidic]
[9] = LC-UV in the neutral range, ammonium carbonate in water / acetonitrile, read-out: log P[neutral]

Structure (SMILES) | pest or weed control at 4 ppm [1] [%] | pest or weed control at 100 g/ha [2] [%] | pest or weed control at 160 µg/disc, 160 µg/well [3] [%] | pest or weed control at 100 g/ha [4] [%] | efficacy [5] [%] | pest or weed control at 100 ppm [6] [%] | chromatographic logP [7, 8] | chromatographic logP [7, 9]
CCS(=O)(=O)c1c(-c2nc3cc(C(F)(F)C(F)(F)F)cnc3n2C)nc(-c2ccc(C3(C#N)CC3)cc2)n1C [Example I-15] | 100 | 100 | 100 | 90 | – | – | – | –
CCS(=O)(=O)c1c(-c2nc3cc(C(F)(F)C(F)(F)F)cnc3n2C)nc(-c2cccc(N3CCOCC3)n2)n1C [Example I-23] | 100 | 100 | 100 | – | – | – | – | –
CCS(=O)(=O)c1c(-c2nc3cc(C(F)(F)F)cnc3n2C)nc(-c2ccc(C3CC3)nc2)n1C [Example I-14] | 100 | 100 | – | 90 | 100 | 90 | – | –
CCS(=O)(=O)c1c(-c2nc3cc(C(F)(F)F)cnc3n2C)nc(C2CC(c3ccc(Cl)cc3)=NO2)n1C (centres unmarked) [Example I-2] | 100 | 100 | – | – | – | – | – | –
CCS(=O)(=O)c1c(-c2nc3cc(C(F)(F)C(F)(F)F)cnc3n2C)nc(-n2cc(C#N)c(-c3ccc(F)cc3)c2)n1C [Example I-26] | 100 | 100 | 100 | – | – | – | – | –
CCS(=O)(=O)c1c(-c2nc3cc(C(F)(F)F)cnc3n2C)nc(C2CC(C3CC3)=NO2)n1C (centres unmarked) [Example I-1, 2-[2-(3-Cyclopropyl-4,5-dihydro-1,2-oxazol-5-yl)-5-(ethylsulfonyl)-1-methyl-1H-imidazol-4-yl]-3-methyl-6-(trifluoromethyl)-3H-imidazo[4,5-b]pyridine] | 100 | – | – | 100 | – | 100 | 2.73 | 2.72
CCS(=O)(=O)c1c(-c2nc3cc(C(F)(F)F)cnc3n2C)nc(-c2ccc(C3CC3)s2)n1C [Example I-8] | 100 | 100 | – | 100 | – | 80 | – | –
CCS(=O)(=O)c1c(-c2nc3cc(C(F)(F)C(F)(F)F)cnc3n2C)nc(-c2cnn(C3CC3)c2)n1C [Example I-16] | 100 | 100 | 100 | 90 | – | – | – | –
CCS(=O)(=O)c1c(-c2nc3cc(C(F)(F)F)cnc3n2C)nc(-n2ccc(C3CC3)n2)n1C [Example I-9, 2-[2-(3-Cyclopropyl-1H-pyrazol-1-yl)-5-(ethylsulfonyl)-1-methyl-1H-imidazol-4-yl]-3-methyl-6-(trifluoromethyl)-3H-imidazo[4,5-b]pyridine] | 100 | 100 | – | 100 | 100 | 90 | 3.46 | 3.36
CCS(=O)(=O)c1c(-c2nc3cc(C(F)(F)F)cnc3n2C)nc(-c2ccc(-c3ccccc3)s2)n1C [Example I-11] | 100 | 100 | – | 90 | – | 90 | – | –
CCS(=O)(=O)c1c(-c2nc3cc(C(F)(F)C(F)(F)F)cnc3n2C)nc(-c2cccc(C3(C#N)CC3)c2)n1C [Example I-24] | 100 | 100 | 100 | – | – | – | – | –
CCS(=O)(=O)c1c(-c2nc3cc(C(F)(F)C(F)(F)F)cnc3n2C)nc(-c2cnn(-c3cncc(F)c3)c2)n1C [Example I-20] | 100 | 100 | 100 | 100 | – | – | – | –
CCS(=O)(=O)c1c(-c2nc3cc(C(F)(F)C(F)(F)F)cnc3n2C)nc(-n2cc(C#N)c(-c3ccccc3F)c2)n1C [Example I-25] | – | 100 | 100 | – | – | – | – | –
CCS(=O)(=O)c1c(-c2nc3cc(C(F)(F)C(F)(F)F)cnc3n2C)nc(-c2cnn(-c3ccc(F)cc3)c2)n1C [Example I-17] | 100 | 100 | 100 | – | – | – | – | –
CCS(=O)(=O)c1c(-c2nc3cc(C(F)(F)C(F)(F)F)cnc3n2C)nc(-c2cnn(-c3cccc(C#N)c3)c2)n1C [Example I-19] | 100 | 100 | 100 | – | – | – | – | –
CCS(=O)(=O)c1c(-c2nc3cc(C(F)(F)F)cnc3n2C)nc(C2CC(c3cccnc3)=NO2)n1C (centres unmarked) [Example I-4] | 100 | – | – | 100 | – | – | – | –
CCS(=O)(=O)c1c(-c2nc3cc(C(F)(F)C(F)(F)F)cnc3n2C)nc(-n2ccc(C3CC3)n2)n1C [Example I-21] | 100 | 100 | 100 | 90 | – | – | – | –
CCS(=O)(=O)c1c(-c2nc3cc(C(F)(F)F)cnc3n2C)nc(-c2ccnn2C2CC2)n1C [Example I-7] | 100 | – | – | 90 | 100 | – | – | –
CCS(=O)(=O)c1c(-c2nc3cc(C(F)(F)F)cnc3n2C)nc(-c2ccc(-c3cccs3)s2)n1C [Example I-13] | 100 | – | 80 | 90 | – | – | – | –
CCS(=O)(=O)c1c(-c2nc3cc(C(F)(F)F)cnc3n2C)nc(C2CC(c3ccccn3)=NO2)n1C (centres unmarked) [Example I-3] | 100 | 100 | – | 90 | – | – | – | –
CCS(=O)(=O)c1c(-c2nc3cc(C(F)(F)F)cnc3n2C)nc(-c2cccc(C3(C#N)CC3)c2)n1C [Example I-12] | 100 | 100 | 100 | 90 | – | – | – | –
CCS(=O)(=O)c1c(-c2nc3cc(C(F)(F)C(F)(F)F)cnc3n2C)nc(-c2ccc(C3CC3)nc2)n1C [Example I-22] | 100 | 100 | 100 | 90 | – | – | – | –
CCS(=O)(=O)c1c(-c2nc3cc(C(F)(F)C(F)(F)F)cnc3n2C)nc(-c2cnn(-c3ccccc3C#N)c2)n1C [Example I-18] | 100 | 100 | 80 | 70 | – | – | – | –
